Source: US20220265766A1, “ANTIMICROBIAL THERAPY THROUGH THE COMBINATION OF PORE-FORMING AGENTS AND HISTONES” (THE REGENTS OF THE UNIVERSITY OF CALIFORNIA, priority 2019, published 2022)
“Also recorded” adds a separate entry of the source.

Legend:
[1] = tested on: E. coli; assay type: cell-based, Escherichia coli; conditions: 1 mM magnesium; 10 μg/mL H2A, 2 μM LL-37, 10 μM MAG2, 1 μg/mL PMB, 10 μg/mL Kan, 10 μg/mL Cam, alone or combined
Protocol: Growth curve experiments were performed using a Synergy HTX multi-mode plate reader and sterile, tissue-culture treated, clear bottom, black polystyrene 96-well microplates (Corning). The temperature setpoint was 37° C. and preheated before beginning measurements. Each well contained 200 μL of total bacterial solution. For experiments performed with stationary phase bacteria, overnight cultures of bacteria were grown overnight to saturation, diluted 1:1000 into minimal medium with 1 μM or 1 mM MgSO4, and supplemented with H2A, LL-37, kanamycin, chloramphenicol, or polymyxin B. For experiments performed with exponential phase bacteria, overnight cultures of bacteria were sub-cultured in fresh minimal medium containing 1 mM MgSO4 and grown to an optical density at 600 nm (OD600) of 0.2. Exponential-phase bacteria were diluted 1:20 into fresh minimal medium with 1 μM or 1 mM MgSO4, and supplemented with H2A, LL-37, magainin-2, kanamycin, chloramphenicol, or polymyxin B. After adding antimicrobial agents, bacterial cultures were immediately added to the 96-well microplates for growth measurements. Growth curves were constructed by taking measurements every 15 minutes for up to 48 hours. Shaking was set to continuous orbital, with a frequency of 282 cpm (3 mm). The read speed was normal, with a 100 msec delay, and 8 measurements per data points.

[2] = tested on: E. coli; experiment: Fluorescent histone and fluorescent LL-37 uptake in E. coli; assay type: cell-based, Escherichia coli; conditions: 1 hour; for AF-H2A uptake (cellular fluorescence): 10 μg/mL AF-H2A alone or with 10 μg/mL Cam, 50 μg/mL Kan, 2 μM LL-37, 1 μg/mL PMB or 10 μM MAG2, 1 mM magnesium
Protocol: E. coli strain MG1655 or S. aureus strain RN4220 was cultured to an OD600 of 0.2, and diluted 1:20 into fresh minimal medium containing 1 mM MgSO4. H2A uptake in E. coli was measured by adding 10 μg/mL AF-H2A (1% Alexa Fluor-labeled H2A mixed with 99% unlabeled H2A) and 10 μg/mL Cam, 50 μg/mL Kan, 2 μM LL-37, 1 μg/mL PMB, or 10 μM MAG2, incubating for 1 hour, and analyzing using fluorescence microscopy. H2A uptake in S. aureus was measured using same concentrations of AF-H2A and LL-37. To measure uptake in low ionic conditions, E. coli was grown to OD600 of 0.2 in minimal medium containing 1 mM MgSO4, and diluted 1:20 into fresh minimal medium containing 1 μM or 1 mM MgSO4. H2A uptake in E. coli was measured by adding 10 μg/mL AF-H2A (1% Alexa Fluor-labeled H2A mixed with 99% unlabeled H2A), incubating for up to 3 hours, and analyzing using fluorescence microscopy. LL-37 uptake in both bacteria was measured by adding 1 μM fluorescently-labeled LL-37 (1% 5-FAM-LC-LL-37 (Anaspec) mixed with 99% unlabeled LL-37) or additionally with 10 μg/mL unlabeled H2A, incubating for 1 hour, and imaging using fluorescence microscopy. Time-lapse measurements of LL-37 uptake in E. coli were performed by adding 2 μM fluorescently-labeled LL-37 (3% 5-FAM-LC-LL-37 mixed with 97% unlabeled LL-37) or additional 10 μg/mL unlabeled H2A, immobilizing on agarose pads, and imaging using fluorescence microscopy. Cell membranes were visualized by adding 1.6 μM FM4-64 (MilliporeSigma, Burlington, Mass.), immobilizing on agarose pads, and imaging using fluorescence microscopy.

[3] = tested on: E. coli; experiment: In vivo transcription assay (tet-inducible mCherry); assay type: cell-based, Escherichia coli; conditions: 1-hour pre-treatment with 10 μg/mL H2A, 2 μM LL-37 or both; anhydrotetracycline 1 hour
Protocol: To determine how histone entry into the bacterial cell impacts transcription, MAL190 was cultured to mid-exponential phase, diluted 1:20 in MinA minimal medium, treated with 10 μg/mL Histone H2A and/or 2 μM LL-37, incubated for 1 hour, and induced for transcription using 50 ng/mL of anhydrotetracycline. The fluorescence of mCherry was measured after 1 hour using fluorescence microscopy.

[4] = tested on: E. coli; experiment: SEM imaging of E. coli; assay type: cell-based, Escherichia coli; conditions: 10 μg/mL H2A, 1 μM LL-37 or both; 1 hour; 1 mM magnesium
Protocol: MG1655 was cultured to an OD600 of 0.2, diluted 1:20, and supplemented with 10 μg/mL H2A and/or 1 μM LL-37. Cells were treated for 1 hour and added to a glass bottomed petri dish for 15 minutes. Due to lower levels of adhesion, control cells were not diluted 1:20 and were incubated in the glass-bottomed petri dish for 45 minutes. Media was removed and 4% paraformaldehyde (PFA) was added for 20 minutes to fix bacteria. Dehydration was performed using serial ethanol dilutions. The fixed and dehydrated samples were coated with 10 nm of iridium using an ACE600 sputter coater (Leica Microsystems, Buffalo Grove, Ill.). Bacteria and surfaces were then characterized using a FEI Magellan 400 XHR Scanning Electron Microscope (FEI Company, Hillsboro, Oreg.) at a 45° tilt angle with an acceleration voltage of 3 kV.

[5] = tested on: E. coli; experiment: Timelapse of E. coli recovery and time course of membrane healing (CFP, PI); assay type: cell-based, Escherichia coli; conditions: then washed
Protocol: To quantify the time-course of recovery in E. coli treated with LL-37 alone or with the synergistic combination of LL-37 and H2A, MAL204 was cultured to mid-exponential phase in MinA minimal medium, added 1 μM LL-37 or 1 μM LL-37 with 10 μg/mL H2A, and incubated for 1 hour. The solution was filtered through a 0.22 μm filter to remove excess LL-37 and H2A and cells were resuspended in fresh minimal medium. Cells were immobilized on a 1% agarose pad and imaged over an hour time period.
To quantify the time-course of membrane repair in bacteria treated with H2A alone, AMPs alone, or the synergistic combination of AMPs and H2A, MAL204 was grown to mid-exponential phase in MinA minimal medium, diluted 1:20 with 10 μg/mL H2A, 1 μM LL-37, 1 μM LL-37 with 10 μg/mL H2A, 10 μM MAG2, or 1 μM MAG2 with 10 μg/mL H2A, and incubated for 1 hour. […] Cells were allowed to recover for 0, 30, 60 minutes before the addition of 30 μM propidium iodide for 15 minutes prior to performing fluorescence microscopy. Intracellular propidium iodide fluorescence and CFP fluorescence were quantified. To quantify the time-course of membrane repair in bacteria treated with H2A in low and physiological environments, MAL204 was grown to mid-exponential phase, diluted 1:20 into minimal media with 1 μM or 1 mM MgSO4, with or without 10 μg/mL H2A, and incubated for 3 hours. […]

[6] = tested on: E. coli genomic DNA; experiment: Non-denaturing nucleic acid PAGE; assay type: binding, Escherichia coli; conditions: 1 μg DNA with 0-1.4 μg H2A or LL-37
Protocol: Overnight MG1655 cultures were grown to saturation in Minimal. DNA purification was performed using a Miniprep kit (Qiagen, Germantown, Md.). A three-second sonication step was performed after lysis to isolate genomic DNA.
10 μL mixtures containing 1 μg purified DNA from MG1655 were incubated with 0-1.4 μg Histone H2A or LL-37 for 25 minutes at 25° C. Gel loading sample buffer (5×, Bio-Rad, Hercules, Calif.) was added to a final concentration of 1× and the products were separated by native PAGE on a 5% TBE gel (Bio-Rad, Hercules, Calif.) at 100 V for 60 minutes. The gel was stained with 1×SYBR safe (Invitrogen, Carlsbad, Calif.) in TBE buffer^71 for 30 minutes before visualization using a EOS Rebel T5 DSLR camera with an f/3.5-5.6 18-55 mm lens (Canon, Huntington, N.Y.) and a DR46B Transilluminator (Clare Chemical, Dolores, Colo.).

[7] = tested on: E. coli; conditions: E. coli after 12 hours; reported (ref. 36); cited from earlier work
[8] = tested on: E. coli; experiment: Cell aggregate size and cell size analysis; assay type: cell-based, Escherichia coli
Protocol: MG1655 were cultured to an OD600 of 0.2, diluted 1:20 into fresh MinA minimal medium, treated with 0-4 μM LL-37 or 0-100 μg/mL H2A, and incubated for 1 hour. Cells were immobilized on an agarose pad using, imaged using phase contrast microscopy, and analyzed using our own custom-written image analysis tools^67,68. version 1.1 that was written in Matlab (Version R2017b; Mathworks, Natick, Mass.). See ‘Code Availability’ section below to download code. The total pixel area of each individual cell was determined by computing the mask area and converting from pixels to μm^2 by multiplying the mask area by a factor of 0.00422 μm^2/pixel to account for the microscope camera pixel size and objective magnification.

[9] = tested on: E. coli; experiment: Chromosomal analysis using SYTOX and HupA-mRuby2; assay type: cell-based, Escherichia coli; conditions: 10 μg/mL H2A, 2 μM LL-37 or both; 3 hours
Protocol: MG1655 or XL-1 Blue expressing HupA-mRuby2 was cultured to OD600 of 0.2, diluted 1:20 into fresh MinA minimal medium, and treated with 2 μM LL-37, 10 μg/mL H2A or both LL-37 and H2A for 30 minutes. For SYTOX visualization, MG1655 were stained with 3 uM SYTOX Green nucleic acid stain (ThermoFisher, Waltham, Mass.) for 10 minutes. Cells were immobilized on agarose pads containing 2 uM LL-37, 10 μg/mL H2A, or both LL-37 and H2A, and remained on the pad for 3 hours before imaging using the fluorescence microscopy. For SYTOX analysis, pads additionally contained 5 uM SYTOX Green. Raw images were analyzed through principal component analysis using our own custom-written image analysis tools^67,68 version 1.1 and modified in Matlab (Version R2017b; Mathworks, Natick, Mass.). See ‘Code Availability’ section below for code. Individual cells were identified in phase contrast images using canny edge detection and using SuperSegger^70. […] The covariances between corresponding pixels of different cells were computed using the 16 bit intensity values from the rotated and resized fluorescence images and for the same images rotated by an additional 180 degrees. […] The size of each bin was determined by subtracting the minimum principal component score from the maximum principal component score and dividing that by the number of bins along that principal component. […]

Compound | E. coli growth (growth rate, lag time) [1] | AF-H2A uptake (cellular fluorescence) [2] | mCherry fluorescence (transcription induction) [3] | cell morphology by SEM [4] | CFP fluorescence / growth during 1-hour recovery period ([5]; 1-hour treatment with 10 μg/mL H2A, 1 μM LL-37, 10 μM MAG2, alone or combined) | PI fluorescence during 1-hour recovery ([5]; 1-hour treatment with H2A, LL-37, MAG2, alone or combined) | migration / retention of E. coli DNA in gel [6] | bulk minimum inhibitory concentration (MIC) [7] [µM] | aggregation of cells ([8]; H2A or LL-37, 1 hour) | cell size ([8]; LL-37 alone, indicated concentrations, 1 hour) | HupA-mRuby2 localization [9] | chromosome localization pattern (Sytox Green) [9] | LL-37 uptake (5-FAM-LL-37 fluorescence) ([2]; fluorescently-labeled LL-37 alone or with 10 μg/mL H2A)
O=C(N[C@H](CO)[C@H](O)c1ccc([N+](=O)[O-])cc1)C(Cl)Cl [chloramphenicol, reference compound] | increased the growth lag time | did not induce AF-H2A uptake | – | – | – | – | – | – | – | – | – | – | –
LL-37: human cathelicidin antimicrobial peptide LL-37 (Anaspec) | decreased the growth rate and slightly extended the lag time | significantly enhanced AF-H2A uptake | little effect on mCherry fluorescence | few cell morphological differences | resumed growth and division and retained expression of CFP; also recorded: CFP fluorescence increased or remained the same | significantly lower | less retention of bacterial DNA | 2 | did not induce aggregation | significant reduction in cell size | condensed the fluorescence near the center of the cell | no significant change in localization | Fluorescence was observed in the cytoplasm
polymyxin B [PMB, reference compound] | slightly inhibited growth | significantly enhanced AF-H2A uptake | – | – | – | – | – | – | – | – | – | – | –
